Data taken from DBAASP.
Converted amounts (≈) assume the structure as drawn.

What was measured:
Assay in all cases: ≥ marks a high value that may be exact or a test limit, other limits are often not marked, values filed in µg/mL are converted to µM
[1] = test system: Candida albicans
[2] = test system: Candida krusei CGMCC 2.1857
[3] = test system: Candida parapsilosis CGMCC 2.3989
[4] = test system: Candida tropicalis CGMCC 2.1975
[5] = test system: Escherichia coli 1005
[6] = test system: Salmonella enterica subsp. enterica serovar Pullorum ATCC 7913
[7] = test system: Salmonella enterica subsp. enterica serovar Typhimurium ATCC 14028
[8] = test system: Staphylococcus aureus ATCC 25923
[9] = test system: Staphylococcus aureus ATCC 29213
[10] = test system: Staphylococcus aureus ATCC 43300
[11] = test system: Staphylococcus epidermidis ATCC 12228
[12] = test system: Listeria monocytogenes ATCC 19115
[13] = test system: Staphylococcus aureus CMCC 26003
[14] = test system: Aspergillus flavus KCTC 6905
[15] = test system: Candida albicans CCARM 14001
[16] = test system: Candida albicans CCARM 14004
[17] = test system: Candida albicans CCARM 14007
[18] = test system: Candida albicans CCARM 14020
[19] = test system: Candida albicans KCTC 7270
[20] = test system: Candida krusei CCARM 14017
[21] = test system: Candida parapsilosis CCARM 14016
[22] = test system: Colletotrichum gloeosporioides KCTC 6169
[23] = test system: Fusarium graminearum KCTC 16656
[24] = test system: Fusarium oxysporum KCTC 16909
[25] = test system: Fusarium solani KCTC 6326
[26] = test system: Fusarium verticillioides KCTC 6149
[27] = test system: Trichoderma virens KCTC 16924
[28] = test system: Trichoderma viride KCTC 16992
[29] = test system: Trichophyton rubrum KCTC 6345
[30] = test system: Acinetobacter baumannii Q12-0867
[31] = test system: Acinetobacter baumannii Q13-0717
[32] = test system: Campylobacter jejuni NCTC 11351
[33] = test system: Campylobacter jejuni
[34] = test system: Enterococcus faecalis JH-2-2
[35] = test system: Escherichia coli K-12
[36] = test system: Escherichia coli
[37] = test system: Klebsiella pneumoniae ATCC 700603
[38] = test system: Klebsiella pneumoniae NCTC 13442
[39] = test system: Klebsiella pneumoniae Q14-0095
[40] = test system: Listeria monocytogenes NCTC 11994
[41] = test system: Pseudomonas aeruginosa ATCC 27853
[42] = test system: Pseudomonas aeruginosa PAO1
[43] = test system: Pseudomonas aeruginosa Q14-0208
[44] = test system: Pseudomonas aeruginosa Q14-0890
[45] = test system: Pseudomonas aeruginosa
[46] = test system: Salmonella typhimurium SL1344
[47] = test system: Staphylococcus aureus MRSA-15
[48] = test system: Staphylococcus aureus NCTC 12493
[49] = test system: Staphylococcus aureus Q14-0320
[50] = test system: Staphylococcus aureus Q14-0325
[51] = test system: Staphylococcus aureus RN4220

NC(=O)[C@H](Cc1ccccc1)NC(=O)[C@H](Cc1ccccc1)NC(=O)[C@H](CCCN=C(N)N)NC(=O)[C@H](CCCN=C(N)N)NC(=O)[C@H](Cc1ccccc1)NC(=O)[C@H](CCCN=C(N)N)NC(=O)[C@H](CCCN=C(N)N)NC(=O)[C@H](Cc1ccccc1)NC(=O)[C@@H](N)Cc1ccccc1 [FFRRFRRFF]
MIC [1]: 11.3 µM (≈ 15.6 µg/mL)
MIC [2]: 4 µM (≈ 5.51 µg/mL)
MIC [3]: ≥ 64 µM
MIC [4]: 4 µM (≈ 5.51 µg/mL)
MIC [5]: 8 µM (≈ 11 µg/mL)
MIC [6]: ≥ 32 µM
MIC [7]: 4 µM (≈ 5.51 µg/mL)
MIC [8]: 4 µM (≈ 5.51 µg/mL)
MIC [9]: 8 µM (≈ 11 µg/mL)
MIC [10]: 4 µM (≈ 5.51 µg/mL)
MIC [11]: 4 µM (≈ 5.51 µg/mL)

CC[C@H](C)[C@H](NC(=O)[C@H](CCCN=C(N)N)NC(=O)[C@H](CCCN=C(N)N)NC(=O)[C@H](CC(C)C)NC(=O)[C@@H](N)Cc1ccccc1)C(=O)N[C@@H](CCCN=C(N)N)C(=O)N[C@H](C(N)=O)C(C)C [FLRRIRV]
MIC [12]: ≥ 133 µM
MIC [13]: ≥ 133 µM

NCCCC[C@H](NC(=O)[C@H](CCCCN)NC(=O)[C@H](Cc1cnc[nH]1)NC(=O)[C@H](CCCCN)NC(=O)[C@H](CCCCN)NC(=O)[C@H](Cc1cnc[nH]1)NC(=O)[C@H](CCCCN)NC(=O)[C@H](CCCCN)NC(=O)[C@H](Cc1cnc[nH]1)NC(=O)[C@H](CCCCN)NC(=O)[C@H](CCCCN)NC(=O)[C@H](Cc1cnc[nH]1)NC(=O)[C@H](CCCCN)NC(=O)[C@H](CCCCN)NC(=O)[C@H](Cc1cnc[nH]1)NC(=O)[C@H](CCCCN)NC(=O)[C@H](CCCCN)NC(=O)[C@H](Cc1cnc[nH]1)NC(=O)[C@H](CCCCN)NC(=O)[C@H](CCCCN)NC(=O)[C@H](Cc1cnc[nH]1)NC(=O)[C@H](CCCCN)NC(=O)[C@H](CCCCN)NC(=O)[C@@H](N)Cc1cnc[nH]1)C(N)=O [HKKHKKHKKHKKHKKHKKHKKHKK]
MIC [14]: 2 µM (≈ 6.33 µg/mL)
MIC [15]: 8 µM (≈ 25.3 µg/mL)
MIC [16]: 8 µM (≈ 25.3 µg/mL)
MIC [17]: 8 µM (≈ 25.3 µg/mL)
MIC [18]: 8 µM (≈ 25.3 µg/mL)
MIC [19]: 8 µM (≈ 25.3 µg/mL)
MIC [20]: 4 µM (≈ 12.7 µg/mL)
MIC [21]: 8 µM (≈ 25.3 µg/mL)
MIC [22]: 1 µM (≈ 3.16 µg/mL)
MIC [23]: 4 µM (≈ 12.7 µg/mL)
MIC [24]: 2 µM (≈ 6.33 µg/mL)
MIC [25]: 1 µM (≈ 3.16 µg/mL)
MIC [26]: 2 µM (≈ 6.33 µg/mL)
MIC [27]: 4 µM (≈ 12.7 µg/mL)
MIC [28]: 1 µM (≈ 3.16 µg/mL)
MIC [29]: 2 µM (≈ 6.33 µg/mL)

NCCCC[C@H](NC(=O)[C@H](CCCCN)NC(=O)[C@H](Cc1cnc[nH]1)NC(=O)[C@H](CCCCN)NC(=O)[C@H](CCCCN)NC(=O)[C@H](Cc1cnc[nH]1)NC(=O)[C@H](CCCCN)NC(=O)[C@H](CCCCN)NC(=O)[C@@H](N)Cc1cnc[nH]1)C(N)=O [HKKHKKHKK]
MIC [14]: 16 µM (≈ 19.2 µg/mL)
MIC [15]: ≥ 64 µM
MIC [16]: ≥ 64 µM
MIC [17]: ≥ 64 µM
MIC [18]: ≥ 64 µM
MIC [19]: ≥ 64 µM
MIC [20]: 16 µM (≈ 19.2 µg/mL)
MIC [21]: ≥ 32 µM
MIC [22]: 8 µM (≈ 9.58 µg/mL)
MIC [23]: ≥ 32 µM
MIC [24]: ≥ 32 µM
MIC [25]: 16 µM (≈ 19.2 µg/mL)
MIC [26]: 16 µM (≈ 19.2 µg/mL)
MIC [27]: 16 µM (≈ 19.2 µg/mL)
MIC [28]: 16 µM (≈ 19.2 µg/mL)
MIC [29]: ≥ 32 µM

CC[C@H](C)[C@H](NC(=O)CNC(=O)[C@H](CCCN=C(N)N)NC(=O)CNC(=O)[C@H](CCCCN)NC(=O)[C@H](CC(N)=O)NC(=O)[C@H](CCCCN)NC(=O)[C@H](CC(=O)O)NC(=O)[C@H](CCCN=C(N)N)NC(=O)[C@H](CS)NC(=O)[C@H](Cc1ccc(O)cc1)NC(=O)[C@@H](NC(=O)[C@H](CCCCN)NC(=O)[C@H](CC(C)C)NC(=O)[C@H](CCCN=C(N)N)NC(=O)[C@@H](NC(=O)[C@H](Cc1ccccc1)NC(=O)[C@@H](N)CCCCN)C(C)C)[C@@H](C)CC)C(=O)N[C@@H](CO)C(=O)N[C@@H](Cc1ccccc1)C(=O)O [KFVRLKIYCRDKNKGRGISF]
MIC [30]: 26.3 µM (≈ 64 µg/mL)
MIC [31]: ≥ 52.7 µM
MIC [32]: ≥ 52.7 µM
MIC [33]: ≥ 52.7 µM
MIC [34]: ≥ 52.7 µM
MIC [35]: 26.3 µM (≈ 64 µg/mL)
MIC [36]: 52.7 µM (≈ 128 µg/mL)
MIC [37]: 52.7 µM (≈ 128 µg/mL)
MIC [38]: ≥ 52.7 µM
MIC [39]: ≥ 52.7 µM
MIC [40]: ≥ 52.7 µM
MIC [41]: 52.7 µM (≈ 128 µg/mL)
MIC [42]: 52.7 µM (≈ 128 µg/mL)
MIC [43]: ≥ 52.7 µM
MIC [44]: 26.3 µM (≈ 64 µg/mL)
MIC [45]: 13.2 µM (≈ 32 µg/mL)
MIC [46]: ≥ 52.7 µM
MIC [9]: > 52.7 µM
MIC [47]: ≥ 52.7 µM
MIC [48]: 26.3 µM (≈ 64 µg/mL)
MIC [49]: ≥ 52.7 µM
MIC [50]: 26.3 µM (≈ 64 µg/mL)
MIC [51]: ≥ 52.7 µM
